Test results taken from US7465848B2, “Zebrafish assay” (priority 2002, dated 2008).
One block for each compound: values may come before it.

Key:
[1] = test system: zebrafish; conditions: for effect on zebrafish heart rate (bradycardia) in the initial screen: compound added to medium at 48 hpf, 1, 10, 100 mcg/ml, highest non-lethal concentration, ventricular rate
Experimental: TubingenAB zebrafish embryos were reared in E3 Media (5 mM NaCl, 0.17 mM KCl, 0.33 mM MgCl2, 0.33 mM CaCl2). At 24 hours post fertilization (hpf) the embryos were distributed into 96 well plates, 3-5 embryos per well with […] of E3 supplemented with phenylthiourea at 0.03 g/l to inhibit pigmentation.
DMSO alone was used as a control. HR measurement: 15 second video recordings were obtained from each well using a Nikon TE200 microscope fitted with a computer controlled stage, and a Hamamatsu ORCA-ER camera. One hundred twenty-eight frames with an exposure time of 90 ms were recorded for each video. Digital movies were taken for each well, one from each quadrant. These video clips were stored digitally.
Offline analysis was performed with commercially available imaging software (Metamorph Software, Universal Imaging). The average pixel density was measured for a region of interest over the heart, and these densities were plotted against time. […] The frequency spectrum was plotted and the peak was reported in a spreadsheet. Manual review of both time domain and frequency domain data as well as the peak frequency was performed to ensure the validity of the data. Fast-Fourier Transform was performed to determine HR. […] Each compound was tested at 1, 10, and 100 mcg/ml and the highest, non-lethal concentration chosen for HR effect. A two-tailed Student's t-test was performed to determine statistical significance.

[2] = test system: zebrafish KCNH2; assay: Zebrafish KCNH2 knock-down with antisense morpholino, heart rate; type: in vivo, Danio rerio; conditions: about 5 nL injected at the single cell stage
Experimental: Approximately 5 nL of the morpholino antisense oligonucleotide diluted in Danieau's solution at the concentrations shown were injected into the zebrafish embryo at the single cell stage. The zebrafish KCNH2 morpholino was directed against the splice donor site of the sixth exon of the zebrafish KCNH2 ortholog (5′-[…]-3′; SEQ ID NO:2).

absorption into the zebrafish embryo ([1]; in vivo): is absorbed
Compound: CC[C@H]1OC(=O)[C@H](C)[C@@H](O[C@H]2C[C@@](C)(OC)[C@@H](O)[C@H](C)O2)[C@H](C)[C@@H](O[C@@H]2O[C@H](C)C[C@H](N(C)C)[C@H]2O)[C@](C)(O)C[C@@H](C)C(=O)[C@H](C)[C@@H](O)[C@]1(C)O [erythromycin]

drug-drug interaction on HR, ketoconazole and terfenadine ([1]; in vivo): faithfully reproduced
Compound: CC(=O)N1CCN(c2ccc(OCC3COC(Cn4ccnc4)(c4ccc(Cl)cc4Cl)O3)cc2)CC1 (centres unmarked) [ketoconazole]

Compound: CN/C(=N/CCSCc1nc[nH]c1C)NC#N [cimetidine]
drug-drug interaction on HR, cimetidine and terfenadine ([1]; in vivo): interaction of cimetidine and terfenadine

Compound: N=C(N)c1ccc(OCCCCCOc2ccc(C(=N)N)cc2)cc1 [pentamadine]
effect on zebrafish heart rate (bradycardia) in the initial screen [1]: failed to cause bradycardia

Compound: CCN(CC)CCNC(=O)c1ccc(NC(C)=O)cc1 [N-acetyl-procainamide]
effect on zebrafish heart rate (bradycardia) in the initial screen [1]: failed to cause bradycardia

Compound: COc1cc(N)c(Cl)cc1C(=O)NC1CCN(CCCOc2ccc(F)cc2)CC1OC (centres unmarked) [cisapride]
change of ED50 on HR for cisapride with increasing doses of erythromycin ([1]; cisapride in combination with erythromycin (FIG. 2C)): ten-fold decrease

Compound: 5′-CCGTCGTACAGGCATGTTGTCCTA-3′ (all phosphorodiamidate morpholino (PMO)) [antisense morpholino]
effect of KCNH2 antisense morpholino on zebrafish heart rate [2]: elicited bradycardia in a dose-dependent manner | effect of KCNH2 antisense morpholino on zebrafish heart rate ([2]; listed as antisense morpholino oligonucleotides directed against zebrafish KCNH2): dose-dependent effect on HR
